How the values were obtained:
[1] = system: A2780 (Ovarian Carcinoma); test: Bliss excess, mean over the matrix (fraction); higher = more synergy
Procedure, shortened: (§1)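 Cell lines in DMEM/F12 or RPMI with 10% FBS were plated in 1536-well plates, held 24 hours at 37°C, 5% CO2, then given two-drug dose matrices for 72 hours (DMSO typically 0.2%). Viability was read by CellTiter-Glo 2.0 luminescence and scaled as inhibition from 0 (vehicle wells) to 1 (blank wells). Combination Emax is the second-highest inhibition in the matrix; Bliss excess is observed combination effect minus expected EA + EB − EA·EB, EA and EB being single-agent effects.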

[2] = system: MDA-MB-436 (Breast Carcinoma); test: as above
Procedure, shortened: as §1

PEO1 (Ovarian Carcinoma) = test: as above
Procedure, shortened: as §1

[3] = system: SK-HEP-1 (Hepatocellular Carcinoma); test: as above
Procedure, shortened: as §1

769-P (Kidney Carcinoma) = test: combination Emax (second highest fraction inhibited in the dose matrix, 72 h); higher = more inhibition; extreme values may be limits of the assay
Procedure, shortened: as §1

[4] = system: A2780 (Ovarian Carcinoma); test: as above
Procedure, shortened: as §1

[5] = system: CGTH-W-1 (Thyroid Gland Carcinoma); test: as above
Procedure, shortened: as §1

EW-7 (Ewing's Sarcoma) = test: as above
Procedure, shortened: as §1

[6] = system: HCC1395 (Breast Carcinoma); test: as above
Procedure, shortened: as §1

HCC70 (Breast Carcinoma) = test: as above
Procedure, shortened: as §1

[7] = system: JHU-022 (Oral Cavity Carcinoma); test: as above
Procedure, shortened: as §1

[8] = system: KYSE-220 (Esophageal Squamous Cell Carcinoma); test: as above
Procedure, shortened: as §1

[9] = system: LU-165 (Small Cell Lung Carcinoma); test: as above
Procedure, shortened: as §1

[10] = system: MDA-MB-436 (Breast Carcinoma); test: as above
Procedure, shortened: as §1

[11] = system: MHH-ES-1 (Ewing's Sarcoma); test: as above
Procedure, shortened: as §1

[12] = system: NCI-H1651 (Lung Adenocarcinoma); test: as above
Procedure, shortened: as §1

[13] = system: NCI-H1703 (Squamous Cell Lung Carcinoma); test: as above
Procedure, shortened: as §1

[14] = system: NCI-H441 (Lung Adenocarcinoma); test: as above
Procedure, shortened: as §1

[15] = system: SK-HEP-1 (Hepatocellular Carcinoma); test: as above
Procedure, shortened: as §1

[16] = system: SW620 (Colorectal Carcinoma); test: as above
Procedure, shortened: as §1
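Wherever Bliss excess, mean over the matrix is given: after 72 h of two-drug dosing.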

Cc1cc2ncnn2cc1Nc1ncc2c(n1)n(C1CCOCC1)c(=O)n2C [AZD7648] + C=CCn1c(=O)c2cnc(Nc3ccc(N4CCN(C)CC4)cc3)nc2n1-c1cccc(C(C)(C)O)n1 [AZD1775] (first compound max 10 µM, partner max 1 µM) gave a Bliss excess [1] of 0.0088, a Bliss excess [2] of -0.0189 and a Bliss excess (PEO1 (Ovarian Carcinoma)) of 0.0164. The Bliss excess [3] was 0.0387, the “combination Emax” value (769-P (Kidney Carcinoma)) was 0.829 and the “combination Emax” value [4] was 0.827. The “combination Emax” value [5] was 0.265, the “combination Emax” value (EW-7 (Ewing's Sarcoma)) was 0.898 and the “combination Emax” value [6] was 0.594. For the same molecule, the “combination Emax” value (HCC70 (Breast Carcinoma)) was 0.559, the “combination Emax” value [7] was 0.497 and the “combination Emax” value [8] was 0.882. For the same molecule, the “combination Emax” value [9] was 0.419, the “combination Emax” value [10] was 0.362 and the “combination Emax” value [11] was 0.686. For the same molecule, the “combination Emax” value [12] was 0.631, the “combination Emax” value [13] was 0.962 and the “combination Emax” value [14] was 0.444. For the same molecule, the “combination Emax” value [15] was 0.513 and the “combination Emax” value [16] was 0.526.

Cc1cc2ncnn2cc1Nc1ncc2c(n1)n(C1CCOCC1)c(=O)n2C [AZD7648] + COc1cc([C@@H]2c3cc4c(cc3[C@@H](O[C@@H]3O[C@@H]5CO[C@@H](C)O[C@H]5[C@H](O)[C@H]3O)[C@H]3COC(=O)[C@H]23)OCO4)cc(OC)c1O [Etoposide] (first compound max 10 µM, 7x7, partner max 10 µM) showed a Bliss excess [1] of 0.085, a Bliss excess [2] of 0.0189 and a Bliss excess (PEO1 (Ovarian Carcinoma)) of 0.0461. The Bliss excess [3] was 0.0472, the “combination Emax” value (769-P (Kidney Carcinoma)) was 0.75 and the “combination Emax” value [4] was 0.889. For the same molecule, the “combination Emax” value [5] was 0.603, the “combination Emax” value (EW-7 (Ewing's Sarcoma)) was 0.882 and the “combination Emax” value [6] was 0.432. For the same molecule, the “combination Emax” value (HCC70 (Breast Carcinoma)) was 0.373, the “combination Emax” value [7] was 0.577 and the “combination Emax” value [8] was 0.876. For the same molecule, the “combination Emax” value [9] was 0.495, the “combination Emax” value [10] was 0.386 and the “combination Emax” value [11] was 0.931. For the same molecule, the “combination Emax” value [12] was 0.738, the “combination Emax” value [13] was 0.892 and the “combination Emax” value [14] was 0.449. For the same molecule, the “combination Emax” value [15] was 0.653 and the “combination Emax” value [16] was 0.95.

CN(CCO)CC[C@H](CSc1ccccc1)Nc1ccc(S(=O)(=O)NC(=O)c2ccc(N3CCC([C@@H](O)c4ccccc4-c4ccc(Cl)cc4)CC3)cc2)cc1S(=O)(=O)C(F)(F)F [AZD4320] + Cn1cnc2c(F)c(Nc3ccc(Br)cc3Cl)c(C(=O)NOCCO)cc21 [Selumetinib] (first compound max 1 µM, 7x7, partner max 3 µM) was tested, and the Bliss excess [1] was 0.0111, the Bliss excess [2] was -0.0388 and the Bliss excess (PEO1 (Ovarian Carcinoma)) was -0.0044. For the same molecule, the Bliss excess [3] was 0.0008, the “combination Emax” value (769-P (Kidney Carcinoma)) was 0.36 and the “combination Emax” value [4] was 0.512. The “combination Emax” value [5] was 0.342, the “combination Emax” value (EW-7 (Ewing's Sarcoma)) was 0.968 and the “combination Emax” value [6] was 0.281. The “combination Emax” value (HCC70 (Breast Carcinoma)) was 0.7, the “combination Emax” value [7] was 0.629 and the “combination Emax” value [8] was 0.505. For the same molecule, the “combination Emax” value [9] was 0.748, the “combination Emax” value [10] was 0.335 and the “combination Emax” value [11] was 0.951. For the same molecule, the “combination Emax” value [12] was 0.39, the “combination Emax” value [13] was 0.298 and the “combination Emax” value [14] was 0.522. For the same molecule, the “combination Emax” value [15] was 0.603 and the “combination Emax” value [16] was 0.942.

For CN(CCO)CC[C@H](CSc1ccccc1)Nc1ccc(S(=O)(=O)NC(=O)c2ccc(N3CCC([C@@H](O)c4ccccc4-c4ccc(Cl)cc4)CC3)cc2)cc1S(=O)(=O)C(F)(F)F [AZD4320] + CCN(CCO)CCCOc1ccc2c(Nc3cc(CC(=O)Nc4cccc(F)c4)[nH]n3)ncnc2c1 [AZD2811] (first compound max 1 µM, 7x7, partner max 1 µM), the Bliss excess [1] was -0.0048, the Bliss excess [2] was -0.0619 and the Bliss excess (PEO1 (Ovarian Carcinoma)) was -0.0249. The Bliss excess [3] was 0.0932, the “combination Emax” value (769-P (Kidney Carcinoma)) was 0.752 and the “combination Emax” value [4] was 0.49. For the same molecule, the “combination Emax” value [5] was 0.292, the “combination Emax” value (EW-7 (Ewing's Sarcoma)) was 0.817 and the “combination Emax” value [6] was 0.309. The “combination Emax” value (HCC70 (Breast Carcinoma)) was 0.66, the “combination Emax” value [7] was 0.315 and the “combination Emax” value [8] was 0.196. For the same molecule, the “combination Emax” value [9] was 0.486, the “combination Emax” value [10] was 0.0639 and the “combination Emax” value [11] was 0.924. The “combination Emax” value [12] was 0.204, the “combination Emax” value [13] was 0.473 and the “combination Emax” value [14] was 0.202. For the same molecule, the “combination Emax” value [15] was 0.793 and the “combination Emax” value [16] was 0.946.

N#Cc1cnc(Nc2cc(NC[C@H]3CNCCO3)c(C(F)(F)F)cn2)cn1 [SRA737] + CCc1c2c(nc3ccc(O)cc13)-c1cc3c(c(=O)n1C2)COC(=O)[C@]3(O)CC [SN-38] (first compound max 10 µM, 7x7, partner max 0.3 µM) showed a Bliss excess [1] of -0.0496, a Bliss excess [2] of -0.031 and a Bliss excess (PEO1 (Ovarian Carcinoma)) of -0.0697. For the same molecule, the Bliss excess [3] was -0.0793, the “combination Emax” value (769-P (Kidney Carcinoma)) was 0.9 and the “combination Emax” value [4] was 0.85. The “combination Emax” value [5] was 0.701, the “combination Emax” value (EW-7 (Ewing's Sarcoma)) was 0.976 and the “combination Emax” value [6] was 0.766. For the same molecule, the “combination Emax” value (HCC70 (Breast Carcinoma)) was 0.674, the “combination Emax” value [7] was 0.759 and the “combination Emax” value [8] was 0.905. The “combination Emax” value [9] was 0.647, the “combination Emax” value [10] was 0.549 and the “combination Emax” value [11] was 0.975. For the same molecule, the “combination Emax” value [12] was 0.835, the “combination Emax” value [13] was 0.929 and the “combination Emax” value [14] was 0.663. For the same molecule, the “combination Emax” value [15] was 0.802 and the “combination Emax” value [16] was 0.955.

In the case of CN(CCO)CC[C@H](CSc1ccccc1)Nc1ccc(S(=O)(=O)NC(=O)c2ccc(N3CCC([C@@H](O)c4ccccc4-c4ccc(Cl)cc4)CC3)cc2)cc1S(=O)(=O)C(F)(F)F [AZD4320] + C[C@@H]1COCCN1C2=NC(=NC(=C2)C3(CC3)[S@](=N)(=O)C)C4=C5C=CNC5=NC=C4 [AZD6738] (first compound max 1 µM, 7x7, partner max 10 µM), the Bliss excess [1] is reported as -0.0402, the Bliss excess [2] is reported as -0.0121 and the Bliss excess (PEO1 (Ovarian Carcinoma)) is reported as 0.0134. The Bliss excess [3] was -0.0723, the “combination Emax” value (769-P (Kidney Carcinoma)) was 0.966 and the “combination Emax” value [4] was 0.799. For the same molecule, the “combination Emax” value [5] was 0.424, the “combination Emax” value (EW-7 (Ewing's Sarcoma)) was 1 and the “combination Emax” value [6] was 0.819. The “combination Emax” value (HCC70 (Breast Carcinoma)) was 0.845, the “combination Emax” value [7] was 0.753 and the “combination Emax” value [8] was 0.877. For the same molecule, the “combination Emax” value [9] was 0.776, the “combination Emax” value [10] was 0.34 and the “combination Emax” value [11] was 0.85. The “combination Emax” value [12] was 0.728, the “combination Emax” value [13] was 0.892 and the “combination Emax” value [14] was 0.69. For the same molecule, the “combination Emax” value [15] was 0.411 and the “combination Emax” value [16] was 0.793.

Source: the supplement of paper PMC11061612
